Test results as given in the supplement of paper PMC11208160.

Assay: recombinant barcode read abundance after kanamycin selection (control-corrected) (log10(CPM+1)); higher = more efficient recombination; sequences stand for … in AGTGCAGAGAAAATCGGCCAGTTTTCTCTGCCTGCAGTCCGCATGCCGT…AGATTTATGCAGCGGACTGCCTTTCTCCCAAAGTGATAAACCGGACAGTATCATGGACCGGTTTTCCCGGTAATCCGTATTTGCAAGGTTGGTTTCACT; site = the 11-nt target
Outline: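 Targets were screened in pooled form in E. coli against IS621 bridge RNA target-binding loops. Recombination efficiency is based on barcode counts at recombinant junctions in counts per million, averaged and corrected for the control. Numbers are shown as log10(CPM+1), with duplicate plates on chloramphenicol/ampicillin LB agar (control) or chloramphenicol/ampicillin/kanamycin with 0.1 mM IPTG.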
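Note: IS621 recombinase and bridge RNA in Escherichia coli cells.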

| Sequence | recombinant barcode read abundance (log10) |
| --- | --- |
| CCGGTGCCTTGGGTTCTAACCTGTTGCCT (site CTGGTGCCTAG) | 0.21 |
| CCGTAAGCTTGGGTTCTAACCTGTTGCCT (site CCGTAAACTAG) | 0.139 |
| CCGTAAGCTTGGGTTCTAACCTGTTGCCT (site CCGTAACCTAG) | 0.0711 |
| CCGTAAGCTTGGGTTCTAACCTGTTGCCT (site CCGTAAGCTAG) | 0.105 |
| CCGTAAGCTTGGGTTCTAACCTGTTGCCT (site CCGTAATCTAG) | 0.0655 |
| CCGTACTCTTGGGTTCTAACCTGTTGCCT (site CCGTACTCTAG) | 1.22 |
| CCGTACTCTTGGGTTCTAACCTGTTGCCT (site CCGTAGTCTAG) | 0.0897 |
| CCGTCTACTTGGGTTCTAACCTGTTGCCT (site CAGTCTACTAG) | 0.0408 |
| CCGTCTACTTGGGTTCTAACCTGTTGCCT (site CCGTCTACTAG) | 0.0187 |
| CCGTCTACTTGGGTTCTAACCTGTTGCCT (site CGGTCTACTAG) | 0.0454 |
| CCGTCTACTTGGGTTCTAACCTGTTGCCT (site CTGTCTACTAG) | 0.082 |
| CCGTCTACTTGGGTTCTAACCTGTTGCTA (site CCGTCTACTAA) | 0.02 |
| CCGTCTACTTGGGTTCTAACCTGTTGCTA (site CCGTCTACTCA) | 0.161 |
| CCGTCTACTTGGGTTCTAACCTGTTGCTA (site CCGTCTACTGA) | 0.125 |
| CCGTCTACTTGGGTTCTAACCTGTTGCTA (site CCGTCTACTTA) | 0.259 |
| CCGTGCCCTTGGGTTCTAACCTGTTGCGT (site CCGTGCCCTAC) | 1.92 |
| CCGTGCCCTTGGGTTCTAACCTGTTGCGT (site TCGTGCCCTAC) | 0.0224 |
| CCGTGCCCTTGGGTTCTAACCTGTTGCTG (site CCGGACCCTCA) | 0.111 |
| CCGTGCCCTTGGGTTCTAACCTGTTGCTG (site CCGTGCCCTCA) | 1.62 |
| CCTAAAACTTGGGTTCTAACCTGTTGCCT (site CCTAAAACTAG) | 0.0998 |
| CCTAAAACTTGGGTTCTAACCTGTTGCCT (site GAACTCTCTTA) | 0.0257 |
| CCTAACCCTTGGGTTCTAACCTGTTGCGT (site CCTAAACCTAC) | 0.39 |

| Sequence | recombinant barcode read abundance (log10) |
| --- | --- |
| CCTAACCCTTGGGTTCTAACCTGTTGCGT (site CCTAACCCTAC) | 1.85 |
| CCTAACCCTTGGGTTCTAACCTGTTGCGT (site CCTAAGCCTAC) | 0.0306 |
| CCTAACCCTTGGGTTCTAACCTGTTGCGT (site CCTAATCCTAC) | 0.381 |
| CCTAAGACTTGGGTTCTAACCTGTTGCCA (site CCTAAGACTAG) | 0.08 |
| CCTAAGACTTGGGTTCTAACCTGTTGCCA (site CCTAAGACTCG) | 0.133 |
| CCTAAGACTTGGGTTCTAACCTGTTGCCA (site CCTAAGACTGG) | 0.0159 |
| CCTAAGACTTGGGTTCTAACCTGTTGCCA (site CCTAAGACTTG) | 0 |
| CCTAAGACTTGGGTTCTAACCTGTTGCCT (site CCTAAGACTAG) | 0.595 |
| CCTAAGACTTGGGTTCTAACCTGTTGCCT (site CCTAAGACTCG) | 0.0786 |
| CCTAAGACTTGGGTTCTAACCTGTTGCCT (site CCTAAGACTGG) | 0.0702 |
| CCTAAGACTTGGGTTCTAACCTGTTGCCT (site CCTAAGACTTG) | 0.0542 |
| CCTAAGCCTTGGGTTCTAACCTGTTGCAT (site CCTAAGCCTAT) | 0.859 |
| CCTAAGCCTTGGGTTCTAACCTGTTGCAT (site GGACGCACTCC) | 0.111 |
| CCTAATACTTGGGTTCTAACCTGTTGCTT (site ACTAATCCTAA) | 0.107 |
| CCTAATACTTGGGTTCTAACCTGTTGCTT (site CCTAATACTAA) | 0.155 |
| CCTACATCTTGGGTTCTAACCTGTTGCAT (site CCTACATCTAT) | 0.252 |
| CCTACATCTTGGGTTCTAACCTGTTGCAT (site CCTACATCTTA) | 0.0552 |
| CCTACATCTTGGGTTCTAACCTGTTGCCT (site CCTACAACTAG) | 0.124 |
| CCTACATCTTGGGTTCTAACCTGTTGCCT (site CCTACACCTAG) | 0.115 |
| CCTACATCTTGGGTTCTAACCTGTTGCCT (site CCTACAGCTAG) | 0.0484 |
| CCTACATCTTGGGTTCTAACCTGTTGCCT (site CCTACATCTAG) | 0.123 |
| CCTACTCCTTGGGTTCTAACCTGTTGCAG (site CCTACTACTCG) | 0.0435 |

| Sequence | recombinant barcode read abundance (log10) |
| --- | --- |
| CCTACTCCTTGGGTTCTAACCTGTTGCAG (site CCTACTCCTCT) | 0.0147 |
| CCTATCCCTTGGGTTCTAACCTGTTGCCT (site CCTATCCCTAG) | 1.32 |
| CCTATCCCTTGGGTTCTAACCTGTTGCCT (site CCTTTCACTAG) | 0.311 |
| CCTCAATCTTGGGTTCTAACCTGTTGCTT (site CCTCAATCTAA) | 0.224 |
| CCTCAATCTTGGGTTCTAACCTGTTGCTT (site CCTCACTCTAA) | 0.0745 |
| CCTCAATCTTGGGTTCTAACCTGTTGCTT (site CCTCAGTCTAA) | 0.0516 |
| CCTCAATCTTGGGTTCTAACCTGTTGCTT (site CCTCATTCTAA) | 0.144 |
| CCTCACTCTTGGGTTCTAACCTGTTGCTT (site CCTCAATCTAA) | 0.058 |
| CCTCACTCTTGGGTTCTAACCTGTTGCTT (site CCTCACTCTAA) | 1.2 |
| CCTCACTCTTGGGTTCTAACCTGTTGCTT (site CCTCAGTCTAA) | 0.00592 |
| CCTCACTCTTGGGTTCTAACCTGTTGCTT (site CCTCATTCTAA) | 0.0602 |
| CCTCAGACTTGGGTTCTAACCTGTTGCGA (site CCTCAGACTTC) | 2.79 |
| CCTCAGACTTGGGTTCTAACCTGTTGCGA (site CTTCAGACTTA) | 0.0629 |
| CCTCAGGCTTGGGTTCTAACCTGTTGCCA (site CCTCAGGCTAG) | 0.312 |
| CCTCAGGCTTGGGTTCTAACCTGTTGCCA (site CCTCAGGCTCG) | 0.0454 |
| CCTCAGGCTTGGGTTCTAACCTGTTGCCA (site CCTCAGGCTGG) | 0.217 |
| CCTCAGGCTTGGGTTCTAACCTGTTGCCA (site CCTCAGGCTTG) | 0.323 |
| CCTCAGGCTTGGGTTCTAACCTGTTGCCC (site CCTCAGGCTAG) | 0.0156 |
| CCTCAGGCTTGGGTTCTAACCTGTTGCCC (site CCTCAGGCTCG) | 0.0734 |
| CCTCAGGCTTGGGTTCTAACCTGTTGCCC (site CCTCAGGCTGG) | 0.651 |
| CCTCAGGCTTGGGTTCTAACCTGTTGCCC (site CCTCAGGCTTG) | 0.399 |
| CCTCAGGCTTGGGTTCTAACCTGTTGCCG (site CCTCAGGCTAG) | 0.0315 |

| Sequence | recombinant barcode read abundance (log10) |
| --- | --- |
| CCTCAGGCTTGGGTTCTAACCTGTTGCCG (site CCTCAGGCTCG) | 0.229 |
| CCTCAGGCTTGGGTTCTAACCTGTTGCCG (site CCTCAGGCTGG) | 0.107 |
| CCTCAGGCTTGGGTTCTAACCTGTTGCCG (site CCTCAGGCTTG) | 0.125 |
| CCTCAGTCTTGGGTTCTAACCTGTTGCGA (site CCTCACTCTCC) | 0.0773 |
| CCTCAGTCTTGGGTTCTAACCTGTTGCGA (site CCTCAGTCTTC) | 1.81 |
| CCTCATTCTTGGGTTCTAACCTGTTGCTT (site CCTCAATCTAA) | 0.0648 |
| CCTCATTCTTGGGTTCTAACCTGTTGCTT (site CCTCACTCTAA) | 0 |
| CCTCATTCTTGGGTTCTAACCTGTTGCTT (site CCTCAGTCTAA) | 0.142 |
| CCTCATTCTTGGGTTCTAACCTGTTGCTT (site CCTCATTCTAA) | 0.199 |
| CCTCTGGCTTGGGTTCTAACCTGTTGCCT (site CCGCTGTCTAG) | 0.808 |
| CCTCTGGCTTGGGTTCTAACCTGTTGCCT (site CCTCTGGCTAG) | 0.514 |
| CCTGACTCTTGGGTTCTAACCTGTTGCCT (site CCTGAATCTAG) | 0.088 |
| CCTGACTCTTGGGTTCTAACCTGTTGCCT (site CCTGACTCTAG) | 0.85 |
| CCTGACTCTTGGGTTCTAACCTGTTGCCT (site CCTGAGTCTAG) | 0.0146 |
| CCTGACTCTTGGGTTCTAACCTGTTGCCT (site CCTGATTCTAG) | 0.195 |
| CCTGCGACTTGGGTTCTAACCTGTTGCCT (site CCTGCGACTAG) | 0.408 |
| CCTGCGACTTGGGTTCTAACCTGTTGCCT (site CCTGCGGCTAG) | 0.0687 |
| CCTGCTCCTTGGGTTCTAACCTGTTGCTT (site CCTACTCCTAG) | 0.0276 |
| CCTGCTCCTTGGGTTCTAACCTGTTGCTT (site CCTGCTCCTAA) | 0.393 |
| CCTGGGACTTGGGTTCTAACCTGTTGCGA (site CCTGGGACTAC) | 0.0343 |
